{
  "source": "patent US20240009174A1",
  "about": "“METHODS FOR DISRUPTING MITOCHONDRIAL UNFOLDED PROTEIN RESPONSE” (Health Research, Inc., priority 2020, published 2024)",
  "key": {"[1]": {"tested_on": "PCa cells (LNCaP and PC-3)", "experiment": "Cell death / apoptosis in PCa cells (Annexin V FITC/PI flow cytometry)", "format": "cell-based", "procedure": "(§1) FIG. 6. Pharmacological inhibition of HSP60-ClpP interaction induces UPR^mt and PCa cell death. (A) Docking of DCEM1 into apical domain of HSP60. (B) LNCaP and PC-3 cells were treated with DCEM1 for 24 hours and HSP60-ClpP interaction was analyzed by co-immunoprecipitation assay. (C) LNCaP and PC-3 cells were treated with DCEM1 for 24 hours and mitoROS levels were analyzed by flow cytometry using mitoSOX dye. (D) LNCaP and PC-3 cells were treated with DCEM1 for 24 hours and poly-Ub protein levels were analyzed by western blotting. (E) LNCaP and PC-3 cells were treated with DCEM1 for 24 and 48 hours and apoptotic cell populations were analyzed by flow cytometry using Annexin V FITC/PI method as explained in materials and methods. In (E) top panel, the bars in each series from left to right are control, 5, 10, and 20, and in (E) bottom panel, the bars in each series from left to right are DMSO, 5, 10, and 20. (F) LNCaP and PC-3 cells were treated with DCEM1 for 24 and 48 hours and lysates were prepared and analyzed for DEVDase activity using specific peptide substrate. […] (G) LNCaP and PC-3 cells were pre-treated with SKQ1 followed by DCEM1 treatment and analyzed for cell viability by MTT assay. (H) LNCaP and PC-3 cells were treated with either DCEM1 or H2O2 (200 μM) for 24 hours and total DNA were isolated and analyzed for mtDNA damage as described in materials and methods. […]"}, "HSP60-ClpP interaction": {"molecular_target": "T1, HSP60-ClpP interaction (Homo sapiens, UniProt P10809)", "T1 construct": "endogenous in cells", "T1 sequence (P10809 27-573)": "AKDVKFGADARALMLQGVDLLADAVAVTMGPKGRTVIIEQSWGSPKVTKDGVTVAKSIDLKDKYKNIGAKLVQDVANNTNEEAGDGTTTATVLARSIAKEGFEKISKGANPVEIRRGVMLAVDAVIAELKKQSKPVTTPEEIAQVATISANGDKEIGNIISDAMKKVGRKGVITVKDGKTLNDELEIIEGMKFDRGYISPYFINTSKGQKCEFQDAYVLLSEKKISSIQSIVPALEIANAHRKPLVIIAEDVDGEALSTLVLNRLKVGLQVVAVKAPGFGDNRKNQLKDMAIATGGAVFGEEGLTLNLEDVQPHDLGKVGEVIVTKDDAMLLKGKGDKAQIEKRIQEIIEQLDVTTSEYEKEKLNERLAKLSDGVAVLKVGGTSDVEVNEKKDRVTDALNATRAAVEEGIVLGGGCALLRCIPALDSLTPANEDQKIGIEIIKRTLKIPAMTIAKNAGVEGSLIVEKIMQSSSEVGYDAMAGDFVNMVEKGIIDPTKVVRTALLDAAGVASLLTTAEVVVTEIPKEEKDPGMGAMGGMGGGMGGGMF", "experiment": "Proximity ligation assay (PLA) of HSP60-ClpP in PCa cells", "format": "cell-based", "settings": "data not shown", "procedure": "Identification of novel inhibitor of HSP60-ClpP interaction that disrupts UPR^mt function and induces PCa cell death. Having shown that two arms of UPR^mt, HSP60 chaperonin and ClpP protease interact and play critical role in PCa cell survival, an in silico analysis was performed and a small molecule library (developed by Enamine Ltd) was screened to identify drugs targeting the apical domain of HSP60 critical for its interaction with ClpP. 9 compounds (A-I) were identified and screened for their cell death inducing potential in PCa cells (data not shown). […] Colony forming ability of PCa cells was inhibited by DCEM1 treatment (data not shown)."}, "LNCaP and PC-3 cells [2]": {"tested_on": "LNCaP and PC-3 cells", "experiment": "poly-Ub protein levels by western blotting", "format": "cell-based", "settings": "24 hours", "procedure": "as §1"}, "LNCaP and PC-3 cells [3]": {"tested_on": "LNCaP and PC-3 cells", "experiment": "mtDNA damage analysis", "format": "cell-based", "settings": "24 hours", "procedure": "as §1"}, "c-Myc, EZH2, AR, PSA": {"tested_on": "c-Myc, EZH2, AR, PSA", "experiment": "c-Myc, EZH2, AR and PSA protein expression in PCa cells", "format": "cell-based", "settings": "LNCaP, 24 hours", "procedure": "FIG. 8. Pharmacological inhibition of HSP60-ClpP inhibit oncogenic signaling and PCa tumor growth in vivo. (A) LNCaP, PC-3 and 22RV1 cells were treated with DCEM1 and analyzed for c-Myc and EZH2 protein expression after 24 hours of treatment. (B) LNCaP, 22RV1 and VCaP cells were treated with DCEM1 and analyzed for AR and PSA protein expression after 24 hours of treatment. (C-D) 22RV1 cells (1×10^6 cells) were mixed with matrigel (50:50 v/v) and injected into each flank of SCID mice and treated with DCEM1 (60 mg/kg bw) through IP route twice weekly and tumors were harvested, photographed (C) and weighed (D) at 30 days. (E) DEVDase activity were analyzed in 22RV1 xenograft tumor tissue following DCEM1 treatment and represented as fold change compared to control. (F) 22RV1 xenograft tissue were sectioned and expression of ki67, c-Myc and EZH2 proteins were analyzed by Immunohistochemistry as described in material and methods. […] (I) DEVDase activity were analyzed in PC-3 xenograft tumor tissue following DCEM1 treatment and represented as fold change compared to control. […] All animals were sacrificed at 16 weeks of age and prostate tissue and tumors were harvested, whole cell lysate were prepared and analyzed for HSP60 and ClpP expression (N); c-Myc and EZH2 expression (0) and SYP and CK 8/18 expression (P) by immunoblotting. […]"}, "TKO prostate tumors": {"tested_on": "TKO prostate tumors", "experiment": "Spontaneous prostate tumor in PTEN:Rb:p53 knockout (TKO) animals", "format": "in vivo, mice", "procedure": "FIG. 8. Pharmacological inhibition of HSP60-ClpP inhibit oncogenic signaling and PCa tumor growth in vivo. (A) LNCaP, PC-3 and 22RV1 cells were treated with DCEM1 and analyzed for c-Myc and EZH2 protein expression after 24 hours of treatment. (B) LNCaP, 22RV1 and VCaP cells were treated with DCEM1 and analyzed for AR and PSA protein expression after 24 hours of treatment. (C-D) 22RV1 cells (1×10^6 cells) were mixed with matrigel (50:50 v/v) and injected into each flank of SCID mice and treated with DCEM1 (60 mg/kg bw) through IP route twice weekly and tumors were harvested, photographed (C) and weighed (D) at 30 days. (E) DEVDase activity were analyzed in 22RV1 xenograft tumor tissue following DCEM1 treatment and represented as fold change compared to control. (F) 22RV1 xenograft tissue were sectioned and expression of ki67, c-Myc and EZH2 proteins were analyzed by Immunohistochemistry as described in material and methods. (G-H) PC-3 cells (1×10^6 cells) were mixed with matrigel (50:50 v/v) and injected into each flank of SCID mice and treated with DCEM1 (60 mg/kg bw) through IP route twice weekly and tumors were harvested, photographed (G) and weighed (H) at 35 days. (I) DEVDase activity were analyzed in PC-3 xenograft tumor tissue following DCEM1 treatment and represented as fold change compared to control. (J) PC-3 xenograft tumor tissue were fixed and sections were used for in situ PLA to analyze HSP60-ClpP interaction in these tissue samples. (K) PBCre4:PTEN F/F: Rb F/F: p53 F/F (TKO) animals were treated with either vehicle (Normal saline: DMSO: Kolliphor HS15; 70:5:200 v/v) or DCEM1 (60 mg/kg bw in vehicle) twice weekly from 10 weeks of age. All animals were sacrificed at 16 weeks of age and whole genitourinary tract was harvested and weighed. (L) PBCre4:PTEN F/F: Rb F/F: p53 F/F (TKO) animals were treated with either vehicle (Normal saline:DMSO:Kolliphor HS15; 70:5:200 v/v) or DCEM1 (60 mg/kg bw in vehicle) twice weekly from 10 weeks of age. All animals were sacrificed at 16 weeks of age and imaged by MRI. (M) PBCre4:PTEN F/F: Rb F/F: p53 F/F (TKO) animals were treated with either vehicle (Normal saline:DMSO:Kolliphor HS15; 70:5:200 v/v) or DCEM1 (60 mg/kg bw in vehicle) twice weekly from 10 weeks of age. […] All animals were sacrificed at 16 weeks of age and prostate tissue and tumors were harvested, whole cell lysate were prepared and analyzed for HSP60 and ClpP expression (N); c-Myc and EZH2 expression (0) and SYP and CK 8/18 expression (P) by immunoblotting. […]\nAblation of HSP60-ClpP interaction by DCEM1 downregulates c-Myc, EZH2 and AR as well as inhibits tumor growth in vivo. […] The effect of DCEM1 on 22RV1 (AR positive) and PC-3 (AR negative) xenografts growth in SCID mice was analyzed. […]"}, "[4]": {"settings": "60 mg/kg bw twice weekly, 10 to 16 weeks of age, immunoblotting"}},
  "data": [
    {"smiles": "CCOc1cc(CNCc2nc3ccccc3[nH]2)ccc1OCc1cccs1", "note": "[DCEM1]", "values": [
      {"measurement": "apoptotic cell death", "setting": "[1]; LNCaP and PC-3 cells, 24 and 48 hours, Annexin V FITC/PI", "result": "apoptotic cell death was observed"},
      {"measurement": "cell death in PCa cells", "setting": "[1]; PCa cells", "result": "robust cell death"},
      {"measurement": "HSP60-ClpP interaction by PLA", "setting": "HSP60-ClpP interaction", "result": "efficiently inhibited HSP60-ClpP interaction"},
      {"measurement": "poly-Ub protein levels", "setting": "LNCaP and PC-3 cells [2]", "result": "increased accumulation of poly-Ub proteins"},
      {"measurement": "mtDNA damage", "setting": "LNCaP and PC-3 cells [3]", "result": "Severe mtDNA damage"},
      {"measurement": "PSA levels", "setting": "c-Myc, EZH2, AR, PSA; 22RV1 and VCaP cells", "result": "Decrease in PSA levels"},
      {"measurement": "c-Myc, EZH2, and AR signaling in PCa cells", "setting": "c-Myc, EZH2, AR, PSA; PC-3, 22RV1, VCaP cells", "result": "downregulates c-Myc, EZH2, and AR signaling"},
      {"measurement": "prostate tumor growth in TKO mice (GU weight, tumor volume by MRI)", "setting": "TKO prostate tumors; 60 mg/kg bw twice weekly from 10 weeks to 16 weeks of age", "result": "significantly inhibited prostate tumor growth"},
      {"measurement": "HSP60 and ClpP expression in TKO prostatic tissue", "setting": "TKO prostate tumors; [4]", "result": "downregulated HSP60 and ClpP expression"},
      {"measurement": "SYP and CK 8/18 expression in TKO tumor tissues", "setting": "TKO prostate tumors; [4]", "result": "downregulated SYP and up regulated CK 8/18 expression"},
      {"measurement": "c-Myc and EZH2 in TKO prostatic tissue", "setting": "TKO prostate tumors; [4]", "result": "depletion of c-Myc and EZH2"}
    ]}
  ]
}
